# Experimental data as given in PubChem BioAssay (NCI).
#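 96-well plates; 48 h exposure; 5 concentrations. Endpoints by linear interpolation between flanking doses. Not reached: highest tested concentration assigned. TGI denotes the concentration required for complete inhibition of growth.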
# Tested on: NCI-H460 lung
# Assay: DTP human tumour cell line panel, 48 h
row,Compound,TGI
1,Cc1cnc(-n2c(C)nc3cc(Cl)ccc3c2=O)s1,> 100 µM
2,O=C1Nc2cc(Cl)ccc2C(=O)N2CCC[C@@H]12,> 100 µM

# Tested on: NCI-H23 lung
# Assay: DTP human tumour cell line panel, 48 h
row,Compound,TGI
1,c1ccc2c(c1)SC1=C(SC(=C3SC4=C(S3)Sc3ccccc3S4)S1)S2,> 100 µM
2,CC(C)=CCC/C(C)=C/CO,> 100 µM
3,O=C1C(Cl)=C(Cl)C(=O)C2=C1C1c3ccccc3C2c2ccccc21,> 100 µM
4,Cc1cnc(-n2c(C)nc3cc(Cl)ccc3c2=O)s1,97.7 µM
5,O=C1Nc2cc(Cl)ccc2C(=O)N2CCC[C@@H]12,> 100 µM

# Tested on: MDA-N
# Assay: DTP human tumour cell line panel, 48 h
row,Compound,TGI
1,c1ccc2c(c1)SC1=C(SC(=C3SC4=C(S3)Sc3ccccc3S4)S1)S2,> 100 µM
2,CC(C)=CCC/C(C)=C/CO,> 100 µM
3,O=C1C(Cl)=C(Cl)C(=O)C2=C1C1c3ccccc3C2c2ccccc21,> 100 µM
4,Cc1cnc(-n2c(C)nc3cc(Cl)ccc3c2=O)s1,56.8 µM
5,O=C1Nc2cc(Cl)ccc2C(=O)N2CCC[C@@H]12,> 100 µM

# Tested on: IGROV1 ovarian
# Assay: DTP human tumour cell line panel, 48 h
row,Compound,TGI
1,c1ccc2c(c1)SC1=C(SC(=C3SC4=C(S3)Sc3ccccc3S4)S1)S2,> 100 µM
2,CC(C)=CCC/C(C)=C/CO,> 100 µM
3,O=C1C(Cl)=C(Cl)C(=O)C2=C1C1c3ccccc3C2c2ccccc21,> 100 µM
4,Cc1cnc(-n2c(C)nc3cc(Cl)ccc3c2=O)s1,> 100 µM
5,O=C1Nc2cc(Cl)ccc2C(=O)N2CCC[C@@H]12,> 100 µM

# Tested on: UACC-62 melanoma
# Assay: DTP human tumour cell line panel, 48 h
row,Compound,TGI
1,c1ccc2c(c1)SC1=C(SC(=C3SC4=C(S3)Sc3ccccc3S4)S1)S2,> 100 µM
2,CC(C)=CCC/C(C)=C/CO,> 100 µM
3,O=C1C(Cl)=C(Cl)C(=O)C2=C1C1c3ccccc3C2c2ccccc21,79.9 µM
4,Cc1cnc(-n2c(C)nc3cc(Cl)ccc3c2=O)s1,68.1 µM
5,O=C1Nc2cc(Cl)ccc2C(=O)N2CCC[C@@H]12,> 100 µM

# Tested on: MALME-3M melanoma
# Assay: DTP human tumour cell line panel, 48 h
row,Compound,TGI
1,c1ccc2c(c1)SC1=C(SC(=C3SC4=C(S3)Sc3ccccc3S4)S1)S2,> 100 µM
2,CC(C)=CCC/C(C)=C/CO,> 100 µM
3,O=C1C(Cl)=C(Cl)C(=O)C2=C1C1c3ccccc3C2c2ccccc21,57.7 µM
4,Cc1cnc(-n2c(C)nc3cc(Cl)ccc3c2=O)s1,> 100 µM
5,O=C1Nc2cc(Cl)ccc2C(=O)N2CCC[C@@H]12,> 100 µM

# Tested on: BT-549 breast
# Assay: DTP human tumour cell line panel, 48 h
row,Compound,TGI
1,c1ccc2c(c1)SC1=C(SC(=C3SC4=C(S3)Sc3ccccc3S4)S1)S2,> 100 µM
2,CC(C)=CCC/C(C)=C/CO,> 100 µM
3,O=C1C(Cl)=C(Cl)C(=O)C2=C1C1c3ccccc3C2c2ccccc21,> 100 µM
4,Cc1cnc(-n2c(C)nc3cc(Cl)ccc3c2=O)s1,> 100 µM
5,O=C1Nc2cc(Cl)ccc2C(=O)N2CCC[C@@H]12,> 100 µM

# Tested on: NCI-H522 lung
# Assay: DTP human tumour cell line panel, 48 h
row,Compound,TGI
1,c1ccc2c(c1)SC1=C(SC(=C3SC4=C(S3)Sc3ccccc3S4)S1)S2,> 100 µM
2,CC(C)=CCC/C(C)=C/CO,> 100 µM
3,O=C1C(Cl)=C(Cl)C(=O)C2=C1C1c3ccccc3C2c2ccccc21,33 µM
4,Cc1cnc(-n2c(C)nc3cc(Cl)ccc3c2=O)s1,92.1 µM
5,O=C1Nc2cc(Cl)ccc2C(=O)N2CCC[C@@H]12,> 100 µM

# Tested on: DU-145 prostate
# Assay: DTP human tumour cell line panel, 48 h
row,Compound,TGI
1,c1ccc2c(c1)SC1=C(SC(=C3SC4=C(S3)Sc3ccccc3S4)S1)S2,> 100 µM
2,CC(C)=CCC/C(C)=C/CO,> 100 µM
3,O=C1C(Cl)=C(Cl)C(=O)C2=C1C1c3ccccc3C2c2ccccc21,> 100 µM
4,Cc1cnc(-n2c(C)nc3cc(Cl)ccc3c2=O)s1,66.4 µM
5,O=C1Nc2cc(Cl)ccc2C(=O)N2CCC[C@@H]12,> 100 µM

# Tested on: EKVX NSCLC
# Assay: DTP human tumour cell line panel, 48 h
row,Compound,TGI
1,c1ccc2c(c1)SC1=C(SC(=C3SC4=C(S3)Sc3ccccc3S4)S1)S2,> 100 µM
2,CC(C)=CCC/C(C)=C/CO,> 100 µM
3,O=C1C(Cl)=C(Cl)C(=O)C2=C1C1c3ccccc3C2c2ccccc21,> 100 µM
4,Cc1cnc(-n2c(C)nc3cc(Cl)ccc3c2=O)s1,35.8 µM
5,O=C1Nc2cc(Cl)ccc2C(=O)N2CCC[C@@H]12,> 100 µM

# Tested on: HS 578T breast
# Assay: DTP human tumour cell line panel, 48 h
row,Compound,TGI
1,c1ccc2c(c1)SC1=C(SC(=C3SC4=C(S3)Sc3ccccc3S4)S1)S2,> 100 µM
2,CC(C)=CCC/C(C)=C/CO,> 100 µM
3,O=C1C(Cl)=C(Cl)C(=O)C2=C1C1c3ccccc3C2c2ccccc21,> 100 µM
4,Cc1cnc(-n2c(C)nc3cc(Cl)ccc3c2=O)s1,> 100 µM
5,O=C1Nc2cc(Cl)ccc2C(=O)N2CCC[C@@H]12,> 100 µM

# Tested on: UO-31 renal
# Assay: DTP human tumour cell line panel, 48 h
row,Compound,TGI
1,c1ccc2c(c1)SC1=C(SC(=C3SC4=C(S3)Sc3ccccc3S4)S1)S2,> 100 µM
2,CC(C)=CCC/C(C)=C/CO,> 100 µM
3,O=C1C(Cl)=C(Cl)C(=O)C2=C1C1c3ccccc3C2c2ccccc21,> 100 µM
4,Cc1cnc(-n2c(C)nc3cc(Cl)ccc3c2=O)s1,4.13 µM
5,O=C1Nc2cc(Cl)ccc2C(=O)N2CCC[C@@H]12,> 100 µM

# Tested on: HCC-2998 colon
# Assay: DTP human tumour cell line panel, 48 h
row,Compound,TGI
1,c1ccc2c(c1)SC1=C(SC(=C3SC4=C(S3)Sc3ccccc3S4)S1)S2,> 100 µM
2,CC(C)=CCC/C(C)=C/CO,> 100 µM
3,O=C1C(Cl)=C(Cl)C(=O)C2=C1C1c3ccccc3C2c2ccccc21,> 100 µM
4,Cc1cnc(-n2c(C)nc3cc(Cl)ccc3c2=O)s1,96.1 µM
5,O=C1Nc2cc(Cl)ccc2C(=O)N2CCC[C@@H]12,> 100 µM

# Tested on: SF-268 CNS
# Assay: DTP human tumour cell line panel, 48 h
row,Compound,TGI
1,c1ccc2c(c1)SC1=C(SC(=C3SC4=C(S3)Sc3ccccc3S4)S1)S2,> 100 µM
2,CC(C)=CCC/C(C)=C/CO,> 100 µM
3,O=C1C(Cl)=C(Cl)C(=O)C2=C1C1c3ccccc3C2c2ccccc21,> 100 µM
4,Cc1cnc(-n2c(C)nc3cc(Cl)ccc3c2=O)s1,> 100 µM
5,O=C1Nc2cc(Cl)ccc2C(=O)N2CCC[C@@H]12,> 100 µM

# Tested on: KM12 colon
# Assay: DTP human tumour cell line panel, 48 h
row,Compound,TGI
1,c1ccc2c(c1)SC1=C(SC(=C3SC4=C(S3)Sc3ccccc3S4)S1)S2,> 100 µM
2,CC(C)=CCC/C(C)=C/CO,> 100 µM
